# Reference: article PMC6606611, “A comparative analysis of secreted protein disulfide isomerases from the tropical co-endemic parasites Schistosoma mansoni and Leishmania major” (Scientific Reports, 2019)
# pIC50: −log10 of the molar value.
# Legend:
# [1] = target: T1, SmERp60 (Schistosoma mansoni, UniProt P38658); assay: fluorimetric di-eosin-GSSG disulfide reductase assay, […] protein; type: biochemical
# T1 construct: recombinant, GST tag cleaved
# T1 sequence (P38658 15-484): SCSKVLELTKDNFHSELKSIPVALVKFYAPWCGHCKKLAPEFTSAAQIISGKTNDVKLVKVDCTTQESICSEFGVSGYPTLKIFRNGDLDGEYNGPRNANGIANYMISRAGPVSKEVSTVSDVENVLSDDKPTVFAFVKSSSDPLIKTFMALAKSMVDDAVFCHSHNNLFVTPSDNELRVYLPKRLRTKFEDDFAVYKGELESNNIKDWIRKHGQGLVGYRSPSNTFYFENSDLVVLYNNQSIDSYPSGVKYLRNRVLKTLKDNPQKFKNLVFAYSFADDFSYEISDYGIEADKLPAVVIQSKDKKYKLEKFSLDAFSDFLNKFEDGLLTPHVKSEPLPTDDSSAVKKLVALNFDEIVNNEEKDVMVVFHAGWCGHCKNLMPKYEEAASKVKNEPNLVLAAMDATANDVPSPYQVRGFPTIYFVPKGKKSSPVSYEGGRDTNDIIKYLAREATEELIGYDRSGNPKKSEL
# [2] = target: T2, LmPDI (Leishmania major, UniProt Q8I8E1); assay: as above; type: biochemical
# T2 construct: gene pdi; recombinant, N-terminal cleavable His-FLAG tag
# [3] = target: T3, HsPDIA3/ERp57 (Homo sapiens, UniProt P30101); assay: biochemical
# T3 construct: gene PDIA3
# T3 sequence (P30101 25-505): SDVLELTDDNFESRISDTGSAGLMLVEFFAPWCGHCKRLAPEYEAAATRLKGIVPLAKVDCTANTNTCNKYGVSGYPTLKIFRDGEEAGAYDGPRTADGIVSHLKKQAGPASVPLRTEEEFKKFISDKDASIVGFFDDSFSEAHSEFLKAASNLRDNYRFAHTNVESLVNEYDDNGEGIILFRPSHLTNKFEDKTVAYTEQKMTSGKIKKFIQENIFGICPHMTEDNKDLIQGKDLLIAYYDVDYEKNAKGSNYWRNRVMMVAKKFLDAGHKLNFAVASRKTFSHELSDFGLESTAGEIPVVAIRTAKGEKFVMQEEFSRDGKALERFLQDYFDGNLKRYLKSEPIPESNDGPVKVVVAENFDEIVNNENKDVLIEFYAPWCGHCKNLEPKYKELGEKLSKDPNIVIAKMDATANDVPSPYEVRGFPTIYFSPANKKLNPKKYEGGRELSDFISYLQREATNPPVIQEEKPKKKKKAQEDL
# T2 sequence (Q8I8E1 entry or part of it): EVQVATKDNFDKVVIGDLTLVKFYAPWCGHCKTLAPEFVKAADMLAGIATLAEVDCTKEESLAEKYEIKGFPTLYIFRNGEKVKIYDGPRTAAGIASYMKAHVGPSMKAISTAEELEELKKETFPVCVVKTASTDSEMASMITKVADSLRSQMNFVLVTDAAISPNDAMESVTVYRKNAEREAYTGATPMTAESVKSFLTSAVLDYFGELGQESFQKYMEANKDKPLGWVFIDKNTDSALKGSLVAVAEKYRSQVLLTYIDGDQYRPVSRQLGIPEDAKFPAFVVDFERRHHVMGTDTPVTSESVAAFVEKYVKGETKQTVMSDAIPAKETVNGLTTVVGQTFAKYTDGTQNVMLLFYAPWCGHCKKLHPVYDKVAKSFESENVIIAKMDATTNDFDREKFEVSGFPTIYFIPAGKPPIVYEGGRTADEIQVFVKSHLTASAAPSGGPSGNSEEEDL
pIC50 [1],Structure (SMILES),pIC50 [2],pIC50 [3]
6.12,COc1cc([C@H]2Oc3cc([C@H]4Oc5cc(O)cc(O)c5C(=O)[C@@H]4O)ccc3O[C@@H]2CO)ccc1O [silibinin A],–,–
–,O=C1O[C@H]2[C@@H]3OC(=O)c4cc(O)c(O)c(O)c4-c4c(O)c(O)c5oc(=O)c6c(c(O)c(O)c7oc(=O)c4c5c76)-c4c(cc(O)c(O)c4O)C(=O)OC[C@H]3OC(O)[C@@H]2OC(=O)c2cc(O)c(O)c(O)c2-c2c1cc(O)c(O)c2O (mixture of isomers) [punicalagin],5.14,6.30
